The values that follow come from patent USRE37781E1, “Substituted cyclic carbonyls and derivatives thereof useful as retroviral protease inhibitors” (DuPont Pharmaceuticals Company, priority 1991, dated 2002).

SMILES strings stand for the structures. Where only a bound is given, the exact number is not on record here.

As a reminder, the IC90 is the concentration needed for an effect of 90%.

The first test concerns HIV-1 (RF) in MT-2 cells. The test can be described thus: microbe, parasite or virus in culture. The settings on record: Human immunodeficiency virus 1, MT2, 48 h, Table 2d; class symbols; read-out: IC90. In kind it is cell-based. As for the experimental part:
DNA Plasmids and in vitro RNA transcripts:
Plasmid pDAB 72 containing both gag and pol sequences of BH10 (bp 113-1816) cloned into PTZ 19R was prepared according to Erickson-Viitanen et al. AIDS Research and Human Retroviruses 1989, 5, 577. The plasmid was linearized with Bam HI prior to the generation of in vitro RNA transcripts using the Riboprobe Gemini system II kit (Promega) with T7 RNA polymerase. Synthesized RNA was purified by treatment with RNase free DNAse (Promega), phenol-chloroform extraction, and ethanol precipitation. RNA transcripts were dissolved in water, and stored at −70° C. The concentration of RNA was determined from the A260.
Biotinylated capture probes were purified by HPLC after synthesis on an Applied Biosystems (Foster City, Calif.) DNA synthesizer by addition of biotin to the 5′ terminal end of the oligonucleotide, using the biotin-phosphoramidite reagent of Cocuzza, Tet. Lett. 1989, 30, 6287. The gag biotinylated capture probe (5-biotin-[…] 3′) was complementary to nucleotides 889-912 of HXB2 and the pol biotinylated capture probe (5′-biotin-[…] 3′) was complementary to nucleotides 2374-2395 of HXB2. Alkaline phosphatase conjugated oligonucleotides used as reporter probes were prepared by Syngene (San Diego, Calif.). The pol reporter probe (5′ […] 3′) was complementary to nucleotides 2403-2425 of HXB2. The gag reporter probe (5′ […] 3′) was complementary to nucleotides 950-973 of HXB2. All nucleotide positions are those of the GenBank Genetic Sequence Data Bank as accessed through the Genetics Computer Group Sequence Analysis Software Package (Devereau Nucleic Acids Research 1984, 12, 387). The reporter probes were prepared as 0.5μM stocks in 2× SSC (0.3M NaCl, 0.03M sodium citrate), 0.05M Tris pH 8.8, 1 mg/mL BSA. The biotinylated capture probes were prepared as 10 μM stocks in water.
Streptavidin coated plates:
Nunc-immunomodule microtiter plate strips were coated by addition of 200 μL of streptavidin (30 ug/mL, Scripps, La Jolla, Calif.) in freshly prepared 10 mM sodium carbonate (pH 9.6). Plates were incubated overnight at 4° C. Streptavidin solution was aspirated from the wells and a blocking buffer composed of phosphate buffered saline (PBS), 20 mg/mL bovine serum albumin (crystalline, nuclease and protease free, Calbiochem) and 100 mg/mL lactose (Sigma) was added to the plates for 3 hrs at room temperature. Blocking buffer was removed from the wells, which were allowed to dry overnight at room temperature and subsequently stored at 4° C. in zip lock bags with desiccant. For the majority of the compound evaluation experiments, streptavidin coated plates were obtained from Du Pont Biotechnology Systems (Boston, Mass.).
MT-2, CEM, and H9 cells were maintained in RPMI 1640 supplemented with 5% fetal calf serum (FCS), 2 mM L-glutamine and 50 μg/mL gentamycin, all from Gibco. Laboratory strains of HIV-1 (RF, MN and IIIB) were propagated in H9 cells in the same medium. Virus stocks were prepared approximately 1 month after acute infection of H9 cells by clarification of the tissue culture medium and storage of aliquots at −70° C. […] Each aliquot of virus stock used for infection was thawed only once. In some cases, infected H9 cells were shifted to Dulbecco's modified Eagle's medium 3-10 days before collection of virus in order to generate virus stocks in medium with low biotin content. Clinical isolates of HIV that had been passaged once in MT-2 cells were used to infect fresh MT-2 cells in RPMI medium. Three days after infection, cells were pelleted, resuspended and culture continued in Dulbecco's modified Eagle's medium as above. Virus stocks of clinical isolates were prepaid 10-15 days after infection when cytopathic effects were apparent in the culture.
Regarding `CC(=O)Oc1cccc(CN2C(=O)N(Cc3cccc(OC(C)=O)c3)C(Cc3ccccc3)C(O)C(O)C2Cc2ccccc2)c1` (stereo not drawn) [10F], the 90% effect concentration (IC90) was below 10 µg/mL.
On the same count and under the same terms, with `NC(=O)c1cccc(CN2C(=O)N(Cc3cccc(C(N)=O)c3)C(Cc3ccccc3)C(O)C(O)C2Cc2ccccc2)c1` (stereo not drawn) [10G] the figure was below 10 µg/mL; with `O=C1NC(Cc2ccccc2)C(O)C(O)C(Cc2ccccc2)N1Cc1cccc(O)c1` (stereo not drawn) [10I], below 10 µg/mL.
On the same count and under the same terms, for `CC(=O)Oc1ccc(CN2C(=O)N(Cc3ccc(OC(C)=O)cc3)C(Cc3ccccc3)C(O)C(O)C2Cc2ccccc2)cc1` (stereo not drawn) [10L] the value was below 10 µg/mL; for `O=C1N(Cc2cccc(O)c2)C(Cc2ccccc2)C(O)C(O)C(Cc2ccccc2)N1Cc1ccccn1` (stereo not drawn) [10Q], below 10 µg/mL; for `O=C1N(Cc2cccc(OCCO)c2)C(Cc2ccccc2)C(O)C(O)C(Cc2ccccc2)N1Cc1cccc(OCCO)c1` (stereo not drawn) [10Y], below 10 µg/mL.
Regarding `CNC(=O)c1cccc(CN2C(=O)N(Cc3cccc(C(=O)NC)c3)C(Cc3ccccc3)C(O)C(O)C2Cc2ccccc2)c1` (stereo not drawn) [11H], the concentration for an effect of 90% (IC90) is below 10 µg/mL.
The same measure, in the same setting: with `O=C1N(Cc2cccc(C(O)CO)c2)C(Cc2ccccc2)C(O)C(O)C(Cc2ccccc2)N1Cc1cccc(C(O)CO)c1` (stereo not drawn) [11K] the figure was below 10 µg/mL; with `O=C1N(Cc2ccc(C(O)CO)cc2)C(Cc2ccccc2)C(O)C(O)C(Cc2ccccc2)N1Cc1ccc(C(O)CO)cc1` (stereo not drawn) [11L], below 10 µg/mL.
On the same count and under the same terms, with `O=C1N(Cc2cccc(OCc3ccccc3)c2)C(Cc2ccccc2)C(O)C(O)C(Cc2ccccc2)N1Cc1cccc([N+](=O)[O-])c1` (stereo not drawn) [11P] the figure was below 10 µg/mL; with `CCN(CC)C(=O)c1cccc(CN2C(=O)N(Cc3cccc(C(=O)OC)c3)C(Cc3ccccc3)C(O)C(O)C2Cc2ccccc2)c1` (stereo not drawn) [11T], below 10 µg/mL; with `CCNC(=O)c1cccc(CN2C(=O)N(Cc3cccc(C(=O)OC)c3)C(Cc3ccccc3)C(O)C(O)C2Cc2ccccc2)c1` (stereo not drawn) [11U], below 10 µg/mL.

The test is the same for the next values; noted with them: Table 2d; HIV RNA assay.
Consider `CC(=O)c1cccc(CN2C(=O)N(Cc3cccc(C(=O)CCN(C)C)c3)C(Cc3ccccc3)C(O)C(O)C2Cc2ccccc2)c1` (stereo not drawn) [15AD], for which the concentration for an effect of 90% (IC90) entry is recorded as “+++ (+++=<10 μg/mL)”.

The same test, now with this note: Table 2d; class symbols.
Take `NC(=O)COc1cccc(CN2C(=O)N(Cc3cccc(OCC(N)=O)c3)C(Cc3ccccc3)C(O)C(O)C2Cc2ccccc2)c1` (stereo not drawn) [10H]: the 90% effect concentration (IC90) entry is given as “+++ (+++=<10 μg/mL)”.
Same read-out and setting: with `Cc1cccc(CN2C(=O)N(Cc3cccc(O)c3)C(Cc3ccccc3)C(O)C(O)C2Cc2ccccc2)c1` (stereo not drawn) [10J] the entry was “+++ (+++=<10 μg/mL)”.

The target of another test is single-chain tethered dimer of HIV protease (Human immunodeficiency virus 1, UniProt P04585). The test can be described thus: biochemical. In kind it is biochemical. Also on record: fused on or other part: A second copy of the same protease unit is joined to the first by a short peptide tether, giving one polypeptide. The conditions noted are these: Table 2d; HIV protease inhibition, HPLC method; read-out: HPLC K1. As for the experimental part:
HIV Protease Inhibition Assay—HPLC Method
Active protease was prepared as described therein by extraction with 67% acetic acid, dilution 33-fold with water, dialysis against water and then against a “refolding buffer” consisting of 20 mM MES, 1 mM dithiothreitol and 10% glycerol. Protease was stored as a stock preparation at 10 uM in refolding buffer.
Substrate: Peptide of sequence: aminobenzoyl-Ala-Thr-His-Gln-Val-Tyr-Phe(NO2)-Val-Arg-Lys-Ala containing p-nitrophenylalanine, was prepared by solid phase synthesis as previously described Cheng et al., op.cit. Stock solutions of 2 mM substrate were prepared in DMSO.
Inhibitory compounds were dissolved in sufficient DMSO to make 3 mM stock solutions. All further dilutions were prepared in “assay buffer”: 1M NaCl, 50 mM MES, pH 5.5, 1 mM EDTA, 1 mM DTT, […] glycerol.
Enzyme reaction: In a 2 ml screw-cap centrifuge tube were added 50 ul protease (final concentration 0.25 nM) and 0.1 ml inhibitory compound (final concentration […]). After 15 min preincubation at room temperature, the reaction was started with the addition of 0.05 ml substrate (final concentration 5 uM). Incubation was carried out at 30 C. for 1 hr. The reaction was stopped with 1 ml 0.1M ammonium hydroxide.
HPLC measurement of product formation: The product (aminobenzoyl-Ala-Thr-His-Gln-Val-Tyr) was separated from substrate on a Pharmacia MonoQ anion exchange column. The injection volume was 0.2 ml. The mobile phases were: A (20 mM trisHCl, pH 9.0, 0.02% sodium Azide, 10% acetonitrile), B (20 mM tris HCl, pH 9.0, 0.02% sodium azide, 0.5M ammonium formate, 10% acetonitrile). The mobile phases were pumped at 1 ml/min, with a gradient from 0 to 30% B in 5 min, 100% B for 4 min to wash the column, and a re-equilibration for 4 min. The retention time of the product was 3.6 min. Detection with a Shimadzu model RF535 fluorescence monitor was at 330 nm (excitation) and 430 (emission).
Take `CC(=O)c1cccc(CN2C(=O)N(Cc3cccc(C(=O)CCN(C)C)c3)C(Cc3ccccc3)C(O)C(O)C2Cc2ccccc2)c1` (stereo not drawn) [15AD]: the Ki was below 10 nM.

The same test, now with this note: Table 2d; class symbols; read-out: HPLC K1.
Regarding `NC(=O)COc1cccc(CN2C(=O)N(Cc3cccc(OCC(N)=O)c3)C(Cc3ccccc3)C(O)C(O)C2Cc2ccccc2)c1` (stereo not drawn) [10H], the Ki was below 10 nM.
Still for that read-out and setting: for `Cc1cccc(CN2C(=O)N(Cc3cccc(O)c3)C(Cc3ccccc3)C(O)C(O)C2Cc2ccccc2)c1` (stereo not drawn) [10J] the value was below 10 nM.

Still in this test, the particulars now being: read-out: HPLC K1; Table 2d; class symbols.
As to `CC(=O)Oc1cccc(CN2C(=O)N(Cc3cccc(OC(C)=O)c3)C(Cc3ccccc3)C(O)C(O)C2Cc2ccccc2)c1` (stereo not drawn) [10F], the Ki was 10 to 1000 nM.
Turning to `NC(=O)c1cccc(CN2C(=O)N(Cc3cccc(C(N)=O)c3)C(Cc3ccccc3)C(O)C(O)C2Cc2ccccc2)c1` (stereo not drawn) [10G], the Ki is below 10 nM.
Turning to `O=C1NC(Cc2ccccc2)C(O)C(O)C(Cc2ccccc2)N1Cc1cccc(O)c1` (stereo not drawn) [10I], the Ki is below 10 nM.
Still for that read-out and setting: with `CC(=O)Oc1ccc(CN2C(=O)N(Cc3ccc(OC(C)=O)cc3)C(Cc3ccccc3)C(O)C(O)C2Cc2ccccc2)cc1` (stereo not drawn) [10L] the figure was 10 to 1000 nM; with `O=C1N(Cc2cccc(O)c2)C(Cc2ccccc2)C(O)C(O)C(Cc2ccccc2)N1Cc1ccccn1` (stereo not drawn) [10Q], 10 to 1000 nM.
Still for that read-out and setting: for `O=C1N(Cc2cccc(OCCO)c2)C(Cc2ccccc2)C(O)C(O)C(Cc2ccccc2)N1Cc1cccc(OCCO)c1` (stereo not drawn) [10Y] the value was below 10 nM; for `CNC(=O)c1cccc(CN2C(=O)N(Cc3cccc(C(=O)NC)c3)C(Cc3ccccc3)C(O)C(O)C2Cc2ccccc2)c1` (stereo not drawn) [11H], below 10 nM.
Same read-out and setting: with `O=C1N(Cc2cccc(C(O)CO)c2)C(Cc2ccccc2)C(O)C(O)C(Cc2ccccc2)N1Cc1cccc(C(O)CO)c1` (stereo not drawn) [11K] the figure was below 10 nM; with `O=C1N(Cc2ccc(C(O)CO)cc2)C(Cc2ccccc2)C(O)C(O)C(Cc2ccccc2)N1Cc1ccc(C(O)CO)cc1` (stereo not drawn) [11L], below 10 nM.
Regarding `O=C1N(Cc2cccc(OCc3ccccc3)c2)C(Cc2ccccc2)C(O)C(O)C(Cc2ccccc2)N1Cc1cccc([N+](=O)[O-])c1` (stereo not drawn) [11P], the Ki is below 10 nM.
The same measure, in the same setting: for `CCN(CC)C(=O)c1cccc(CN2C(=O)N(Cc3cccc(C(=O)OC)c3)C(Cc3ccccc3)C(O)C(O)C2Cc2ccccc2)c1` (stereo not drawn) [11T] the value was below 10 nM; for `CCNC(=O)c1cccc(CN2C(=O)N(Cc3cccc(C(=O)OC)c3)C(Cc3ccccc3)C(O)C(O)C2Cc2ccccc2)c1` (stereo not drawn) [11U], below 10 nM.
